Patent publication US11040054B2, “Estrogen sensing through GPER1 regulates normal and malignant liver growth” (The Brigham and Women's Hospital, Inc., priority 2016, dated 2021)
Each block holds one compound with its values, some of them ahead of it.

Experiments:
zebrafish larvae liver = assay: Larval liver size analysis (ISH for fabp10a, fabp10a:GFP imaging) at 120 hpf; format: in vivo; conditions: for liver size at 120 hpf: compound alone, exposure 110-115 hpf; for liver size in gper1−/− mutants or gper1 morphants: gper1 loss of function larvae; for effect on E2-induced enhancement in liver size: co-exposure with E2 (or knockdown plus E2)
Procedure: Zebrafish larvae were exposed to chemicals, dissolved in 0.1% (v/v) dimethylsulfoxide (DMSO), at specified doses for 5 hrs. from 110-115 hours post fertilization (hpf) and analyzed at 120 hpf (unless otherwise specified). Adults were treated for 5-7 hrs. per exposure with frequency as described.
Larvae were fixed with paraformaldehyde and in situ hybridization (ISH) performed according to standard protocols.^16 gper1 probe was generously gifted by David Volz.^17
ISH images were obtained by brightfield microscopy, and fabp10a:GFP reporter larvae were imaged using fluorescence microscopy. 3D imaging of fabp10a:GFP fish was performed with a Zeiss LightsheetZ.1. […] were fixed and paraffin embedded. Tissues were sectioned (5 μm) and stained with hematoxylin & eosin (H&E). De-identified formalin-fixed paraffin-embedded human liver sections were obtained from pathology files of the University of Utah (IRB 00091019) and commercially available tissue arrays (OD-CT-DgLiv01-003, US Biomax). Immunohistochemistry (IHC) (using antibodies listed in Table 4) and terminal deoxynucleotidyl transferase dUTP nick-end labeling (TUNEL) staining were performed using established protocols.^16 GPER1 staining was scored by a pathologist based on the mean amount of cytoplasmic reactivity in hepatic cells: 0+, minimal/no staining; 1+, faint/mild staining; 2+, moderate staining; 3+, strong staining.

[1] = tested on: PI3K/Akt, MAPK/Erk and mTORC1 pathways; assay: Western blot analysis of whole larvae (p-Akt, p-Erk, p-S6); format: in vivo, zebrafish
Source text: Pooled larvae (n=30-40) and cultured cells were homogenized in radioimmunoprecipitation assay (RIPA) lysis buffer and processed as previously described.^15 Lysates were separated by gel electrophoresis and subjected to Western blot.

HepG2 cells = assay: HepG2 signaling immunoblot (p-Akt, p-S6); conditions: G15 500 nM co-exposure with E2 10 nM
[2] = tested on: liver tumors in DMBA-exposed WT zebrafish; assay: DMBA chemical carcinogenesis followed by chemical prevention trial
[3] = tested on: hepatocytes in larval liver; conditions: for PCNA+ cells in the liver: compound alone, larvae
fabp10a:GFP+ hepatocytes = conditions: zebrafish, in vivo
GPER1 = GPER1 (Homo sapiens, UniProt Q99527); conditions: cited from earlier work
Chain of GPER1 (Q99527 whole entry): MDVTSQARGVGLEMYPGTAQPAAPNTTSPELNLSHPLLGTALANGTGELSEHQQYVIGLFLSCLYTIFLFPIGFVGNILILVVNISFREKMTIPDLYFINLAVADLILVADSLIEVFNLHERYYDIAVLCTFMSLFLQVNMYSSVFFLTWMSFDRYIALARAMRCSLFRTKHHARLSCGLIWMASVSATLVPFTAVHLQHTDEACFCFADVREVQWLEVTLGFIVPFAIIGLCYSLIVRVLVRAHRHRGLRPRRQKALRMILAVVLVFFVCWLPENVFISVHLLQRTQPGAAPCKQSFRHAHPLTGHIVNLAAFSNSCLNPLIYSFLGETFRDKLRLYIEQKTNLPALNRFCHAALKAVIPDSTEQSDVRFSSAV

[4] = tested on: regenerating larval liver; assay: Liver regeneration after metronidazole (Mtz) hepatocyte ablation in Tg(fabp10a:CFP-NTR) larvae
hepatic lesions = conditions: in vivo; cited from earlier work

Compound: 740Y-P
larvae with increased liver size (zebrafish larvae liver; WT larvae, 120 hpf, larvae with phenotype out of total observed): 77%
liver size at 120 hpf (zebrafish larvae liver; WT larvae): increased liver size
liver size in gper1−/− mutants or gper1 morphants (zebrafish larvae liver; 120 hpf): rescued liver growth
gper1 morphants with small liver phenotype rescued (zebrafish larvae liver; gper1 morphants, 120 hpf): 61%
p-Akt in gper1−/− mutants ([1]; gper1−/− whole larvae): restored to WT levels

effect on E2-induced increase in PCNA+ hepatocytes ([3]; zebrafish, in vivo): inhibited
hepatocytes in G2/M phase (fabp10a:GFP+ hepatocytes): 2.9%
hepatocytes in S phase (fabp10a:GFP+ hepatocytes): 16.2%
Compound: Brc1cc2c(cc1[C@@H]1Nc3ccccc3[C@@H]3C=CC[C@@H]31)OCO2 (racemic) [G-15, (3aS,4R,9bR)-4-(6-Bromo-1,3-benzodioxol-5-yl)-3a,4,5,9b-3H-cyclopenta[c]quinoline]
effect on E2-associated increases in p-Akt and p-S6 (HepG2 cells): blocked
effect on E2-induced enhancement in liver size (zebrafish larvae liver; WT larvae, 120 hpf): specifically inhibited
liver size at 120 hpf (zebrafish larvae liver; WT larvae): reduced liver size
impact of blockade on E2-induced tumor size, sex-stratified ([2]; E2+G-15, male vs female fish): predominantly observed in male, less in female fish
liver tumor size (mean) ([2]; E2+G-15 co-exposure, up until 9 mpf): 0.4 mm
PCNA+ cells in the liver [3]: decreased

Compound: CC/C(=C(\c1ccc(O)cc1)c1ccc(OCCN(C)C)cc1)c1ccccc1 [4-OHT]
action on GPER1 (GPER1): activated

hepatocytes in G2/M phase (fabp10a:GFP+ hepatocytes): 9.4%
hepatocytes in S phase (fabp10a:GFP+ hepatocytes): 21.8%
total hepatocyte number by FACS (fabp10a:GFP+ hepatocytes): increased
Compound: CC(=O)c1ccc2c(c1)C1C=CCC1C(c1cc3c(cc1Br)OCO3)N2 (stereo not shown) [G-1]
liver size at 30 hpT after Mtz ablation ([4]; WT larvae, chemical incubation for 5 hours, vs controls): significantly larger liver size
liver regrowth after ablation in gper1−/− mutants ([4]; gper1−/− larvae): not enhanced
liver regrowth after ablation in mtor−/− mutants ([4]; mtor−/− larvae): not impacted
liver size at 120 hpf (zebrafish larvae liver; WT larvae): increased liver size
liver size in gper1−/− mutants or gper1 morphants (zebrafish larvae liver; 120 hpf): did not respond
liver size in hypomorphic mtor mutants (zebrafish larvae liver; mtor mutants, 120 hpf): did not change
PCNA+ cells in the liver [3]: fractional increase
phosphorylated S6 (p-S6) ([1]; WT whole larvae): increased phosphorylated S6

Compound: O=c1cc(N2CCOCC2)oc2c(-c3ccccc3)cccc12 [LY292002]
larvae with decreased liver size (zebrafish larvae liver; 120 hpf, larvae with phenotype out of total observed): 72%
larvae in which estrogenic effect on liver size was blocked (zebrafish larvae liver; co-treatment of E2 and LY292002, WT larvae, 120 hpf): 86%

Compound: NC1(c2ccc(-c3nc4ccn5c(=O)[nH]nc5c4cc3-c3ccccc3)cc2)CCC1 [MK-2206]
effect on E2-induced enhancement in liver size (zebrafish larvae liver; WT larvae, 120 hpf): diminished this effect
liver size at 120 hpf (zebrafish larvae liver; WT larvae): decreased liver size

Compound: CC(C)(C#N)c1cc(Cn2cncn2)cc(C(C)(C)C#N)c1 [anastrozole]
liver size at 120 hpf (zebrafish larvae liver; WT larvae): decrease in liver size

Compound: C[C@]12CC[C@@H]3c4ccc(O)cc4C[C@@H](CCCCCCCCC[S+]([O-])CCCC(F)(F)C(F)(F)F)[C@H]3[C@@H]1CC[C@@H]2O (stereo partly shown) [fulvestrant]
action on GPER1 (GPER1): activated

Compound: CC/C(=C(\c1ccccc1)c1ccc(OCCN(C)C)cc1)c1ccccc1 [tamoxifen]
size and number of hepatic lesions (hepatic lesions): increased the size and number of hepatic lesions
action on GPER1 (GPER1): agonist
